{"source": "patent US11377441B2", "about": "“Covalent inhibitors of KRAS” (Araxes Pharma LLC, priority 2017, dated 2022)"}
{"biological_target": "T1, KRAS G12C 1-169, his-tagged protein, GDP-loaded (Homo sapiens, UniProt P01116, G12C)", "T1 construct": "KRAS G12C 1-169, his-tagged protein, GDP-loaded", "assay": "Biochemical assay: covalent modification of KRAS G12C measured by mass spectrometry (RapidFire/TOF or Q-Exactive)", "type": "binding", "details": "covalent binding to (modification of) KRAS G12C after a ten minute incubation period", "in_short": "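Intact-mass readout (TOF or Q-Exactive, charge-envelope deconvolution) gives percent covalent adduct from modified and unmodified species. Compound at 10, 30 or 100 μM was incubated at room temperature for 10 min to 24 h with 2 μM or 0.5 μM GDP-bound KRAS G12C 1-169 in Hepes/NaCl/MgCl2 buffer, then acid-quenched.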"}
{"smiles": "C=CC(=O)N1C[C@H](C)N(c2nc(OC[C@@H]3CCCN3C(C)C)nc3c(F)c(-c4c(C)ccc5[nH]nc(C)c45)c(Cl)cc23)C[C@H]1C", "note": "[Compound 247, 1-((2R,5S)-4-(6-chloro-7-(3,5-dimethyl-1H-indazol-4-yl)-8-fluoro-2-(((S)-1-isopropylpyrrolidin-2-yl)methoxy)quinazolin-4-yl)-2,5-dimethylpiperazin-1-yl)prop-2-en-1-one]", "Binding %": "++ (++ indicates binding activity from 50 to 80%)"}
{"smiles": "C=CC(=O)N1C[C@H](C)N(c2nc(N3CC(N(C)C)C3)nc3c(F)c(-c4c(C)ccc5cnn(C(C)C)c45)c(Cl)cc23)C[C@H]1C", "note": "[Compound 127, 1-((2R,5S)-4-(6-chloro-2-(3-(dimethylamino)azetidin-1-yl)-8-fluoro-7-(1-isopropyl-6-methyl-1H-indazol-7-yl)quinazolin-4-yl)-2,5-dimethylpiperazin-1-yl)prop-2-en-1-one]", "Binding %": "++ (++ indicates binding activity from 50 to 80%)"}
{"smiles": "C=CC(=O)N1C[C@H](C)N(c2nc(N3CC(N(C)C)C3)nc3c(F)c(-c4c(C)ccc5[nH]nc(N)c45)c(Cl)cc23)C[C@H]1C", "note": "(atropisomer, axis not shown) [Compound 89, 1-((2R,5S)-4-((R)-7-(3-amino-5-methyl-1H-indazol-4-yl)-6-chloro-2-(3-(dimethylamino)azetidin-1-yl)-8-fluoroquinazolin-4-yl)-2,5-dimethylpiperazin-1-yl)prop-2-en-1-one]", "Binding %": "+++ (+++ indicates binding activity greater than 80%)"}
{"smiles": "C=CC(=O)N1C[C@H](C)N(c2nc(OCCN3CC(F)(F)C3)nc3c(F)c(-c4c(C)ccc5cnn(C)c45)c(Cl)cc23)C[C@H]1C", "note": "(atropisomer, axis not shown) [Compound 147, 1-((2R,5S)-4-((R)-6-chloro-2-(2-(3,3-difluoroazetidin-1-yl)ethoxy)-7-(1,6-dimethyl-1H-indazol-7-yl)-8-fluoroquinazolin-4-yl)-2,5-dimethylpiperazin-1-yl)prop-2-en-1-one]", "Binding %": "+++ (+++ indicates binding activity greater than 80%)"}
{"smiles": "C=CC(=O)N1C[C@H](C)N(c2nc(OCCN3CCC(F)(F)CC3)nc3c(F)c(-c4c(C)ccc5[nH]nc(N)c45)c(Cl)cc23)C[C@H]1C", "note": "[Compound 118, 1-((2R,5S)-4-(7-(3-amino-5-methyl-1H-indazol-4-yl)-6-chloro-2-(2-(4,4-difluoropiperidin-1-yl)ethoxy)-8-fluoroquinazolin-4-yl)-2,5-dimethylpiperazin-1-yl)prop-2-en-1-one]", "Binding %": "+++ (+++ indicates binding activity greater than 80%)"}
{"smiles": "C=CC(=O)N1C[C@H](C)N(c2nc(OC[C@H]3CCN(C)C3)nc3c(F)c(-c4c(C)ccc5cnn(C)c45)c(Cl)cc23)C[C@H]1C", "note": "[Compound 196, 1-((2R,5S)-4-(6-chloro-7-(1,6-dimethyl-1H-indazol-7-yl)-8-fluoro-2-(((S)-1-methylpyrrolidin-3-yl)methoxy)quinazolin-4-yl)-2,5-dimethylpiperazin-1-yl)prop-2-en-1-one]", "Binding %": "++ (++ indicates binding activity from 50 to 80%)"}
{"smiles": "C=CC(=O)N1C[C@H](C)N(c2nc(N3CC(NC)C3)nc3c(F)c(-c4c(C)ccc5cnn(C)c45)c(Cl)cc23)C[C@H]1C", "note": "(atropisomer, axis not shown) [Compound 170, 1-((2R,5S)-4-((R)-6-chloro-7-(1,6-dimethyl-1H-indazol-7-yl)-8-fluoro-2-(3-(methylamino)azetidin-1-yl)quinazolin-4-yl)-2,5-dimethylpiperazin-1-yl)prop-2-en-1-one]", "Binding %": "+++ (+++ indicates binding activity greater than 80%)"}
{"smiles": "C=CC(=O)N1C[C@H](C)N(c2nc(N3CC(N(C)C)C3)nc3c(F)c(-c4c(C)ccc5onc(N)c45)c(Cl)cc23)C[C@H]1C", "note": "[Compound 50, 1-((2R,5S)-4-(7-(3-amino-5-methylbenzo[d]isoxazol-4-yl)-6-chloro-2-(3-(dimethylamino)azetidin-1-yl)-8-fluoroquinazolin-4-yl)-2,5-dimethylpiperazin-1-yl)prop-2-en-1-one]", "Binding %": "+++ (+++ indicates binding activity greater than 80%)"}
{"smiles": "C=CC(=O)N1C[C@H](C)N(c2nc(OCCN3CCN(C)CC3)nc3c(F)c(-c4c(C)ccc5cnn(C)c45)c(Cl)cc23)C[C@H]1C", "note": "(atropisomer, axis not shown) [Compound 169, 1-((2R,5S)-4-((R)-6-chloro-7-(1,6-dimethyl-1H-indazol-7-yl)-8-fluoro-2-(2-(4-methylpiperazin-1-yl)ethoxy)quinazolin-4-yl)-2,5-dimethylpiperazin-1-yl)prop-2-en-1-one]", "Binding %": "+++ (+++ indicates binding activity greater than 80%)"}
{"smiles": "C=CC(=O)N1C[C@H](C)N(c2nc(OCCN3CCOCC3)nc3c(F)c(-c4c(C)ccc5[nH]nc(N)c45)c(Cl)cc23)C[C@H]1C", "note": "(atropisomer, axis not shown) [Compound 59, 1-((2R,5S)-4-((R)-7-(3-amino-5-methyl-1H-indazol-4-yl)-6-chloro-8-fluoro-2-(2-morpholinoethoxy)quina-zolin-4-yl)-2,5-dimethylpiperazin-1-yl)prop-2-en-1-one]", "Binding %": "+++ (+++ indicates binding activity greater than 80%)"}
{"smiles": "C=CC(=O)N1C[C@H](C)N(c2nc(OC3CCN(C(C)C)CC3)nc3c(F)c(-c4c(C)ccc5cnn(C)c45)c(Cl)cc23)C[C@H]1C", "note": "(atropisomer, axis not shown) [Compound 167, 1-((2R,5S)-4-((R)-6-chloro-7-(1,6-dimethyl-1H-indazol-7-yl)-8-fluoro-2-(1-isopropylpiperidin-4-yloxy)quinazolin-4-yl)-2,5-dimethylpiperazin-1-yl)prop-2-en-1-one]", "Binding %": "+++ (+++ indicates binding activity greater than 80%)"}
{"smiles": "C=CC(=O)N1C[C@H](C)N(c2nc(OCCN3CC[C@@H](OC)C3)nc3c(F)c(-c4c(C)ccc5[nH]nc(N)c45)c(Cl)cc23)C[C@H]1C", "note": "[Compound 100, 1-((2R,5S)-4-(7-(3-amino-5-methyl-1H-indazol-4-yl)-6-chloro-8-fluoro-2-(2-((R)-3-methoxypyrrolidin-1-yl)ethoxy)quinazolin-4-yl)-2,5-dimethylpiperazin-1-yl)prop-2-en-1-one]", "Binding %": "+++ (+++ indicates binding activity greater than 80%)"}
{"smiles": "C=CC(=O)N1C[C@H](C)N(c2nc(OCCN3CCCC(F)(F)C3)nc3c(F)c(-c4c(C)ccc5[nH]nc(N)c45)c(Cl)cc23)C[C@H]1C", "note": "[Compound 114, 1-((2R,5S)-4-(7-(3-amino-5-methyl-1H-indazol-4-yl)-6-chloro-2-(2-(3,3-difluoropiperidin-1-yl)ethoxy)-8-fluoroquinazolin-4-yl)-2,5-dimethylpiperazin-1-yl)prop-2-en-1-one]", "Binding %": "+++ (+++ indicates binding activity greater than 80%)"}
{"smiles": "C=CC(=O)N1C[C@H](C)N(c2nc(OCCN3CCOCC3)nc3c(F)c(-c4c(C)ccc5[nH]nc(N)c45)c(Cl)cc23)C[C@H]1C", "note": "(atropisomer, axis not shown) [Compound 58, 1-((2R,5S)-4-((S)-7-(3-amino-5-methyl-1H-indazol-4-yl)-6-chloro-8-fluoro-2-(2-morpholinoethoxy)quina-zolin-4-yl)-2,5-dimethylpiperazin-1-yl)prop-2-en-1-one]", "Binding %": "+ (+ indicates binding activity greater than 0% and up to 50%)"}
{"smiles": "C=CC(=O)N1C[C@H](C)N(c2nc(N3CC(N(C)C)C3)nc3c(F)c(-c4c(C)ccc5cn(C)nc45)c(Cl)cc23)C[C@H]1C", "note": "(atropisomer, axis not shown) [Compound 105, 1-((2R,5S)-4-((R)-6-chloro-7-(2,6-dimethyl-2H-indazol-7-yl)-2-(3-(dimethylamino)azetidin-1-yl)-8-fluoroquinazolin-4-yl)-2,5-dimethylpiperazin-1-yl)prop-2-en-1-one]", "Binding %": "++ (++ indicates binding activity from 50 to 80%)"}
{"smiles": "C=CC(=O)N1C[C@H](C)N(c2nc(N3CC(N(C)C)C3)nc3c(F)c(-c4c(C)ccc5[nH]nc(NC(C)=O)c45)c(Cl)cc23)C[C@H]1C", "note": "[Compound 119, N-(4-(4-((2S,5R)-4-acryloyl-2,5-dimethylpiperazin-1-yl)-6-chloro-2-(3-(dimethylamino)azetidin-1-yl)-8-fluoroquinazolin-7-yl)-5-methyl-1H-indazol-3-yl)acetamide]", "Binding %": "+ (+ indicates binding activity greater than 0% and up to 50%)"}
{"smiles": "C=CC(=O)N1C[C@H](C)N(c2nc(OC[C@@H]3CCCN3C)nc3c(F)c(-c4c(C)ccc5[nH]nc(C)c45)c(Cl)cc23)C[C@H]1C", "note": "[Compound 162, 1-((2R,5S)-4-(6-chloro-7-(3,5-dimethyl-1H-indazol-4-yl)-8-fluoro-2-(((S)-1-methylpyrrolidin-2-yl)methoxy)quinazolin-4-yl)-2,5-dimethylpiperazin-1-yl)prop-2-en-1-one]", "Binding %": "+++ (+++ indicates binding activity greater than 80%)"}
{"smiles": "C=CC(=O)N1C[C@H](C)N(c2nc(OC[C@H]3COCCN3C)nc3c(F)c(-c4c(C)ccc5[nH]nc(C6CC6)c45)c(Cl)cc23)C[C@H]1C", "note": "[Compound 180, 1-((2R,5S)-4-(6-chloro-7-(3-cyclopropyl-5-methyl-1H-indazol-4-yl)-8-fluoro-2-(((R)-4-methymorpholin-3-yl)methoxy)quinazolin-4-yl)-2,5-dimethylpiperazin-1-yl)prop-2-en-1-one]", "Binding %": "++ (++ indicates binding activity from 50 to 80%)"}
{"smiles": "C=CC(=O)N1C[C@H](C)N(c2nc(N3CC(NC)C3)nc3c(F)c(-c4c(C)ccc5cnn(C6CC6)c45)c(Cl)cc23)C[C@H]1C", "note": "(atropisomer, axis not shown) [Compound 208, 1-((2R,5S)-4-((R)-6-chloro-7-(1-cyclopropyl-6-methyl-1H-indazol-7-yl)-8-fluoro-2-(3-(methylamino)azetidin-1-yl)quinazolin-4-yl)-2,5-dimethylpiperazin-1-yl)prop-2-en-1-one]", "Binding %": "+++ (+++ indicates binding activity greater than 80%)"}
